From ChEMBL document CHEMBL1201862, “PubChem BioAssay data set” (2004) come the findings set out here.

A short description of assay [1]: cells. Type of assay: functional, cell-based.
The nature of assay [2]: cells. It counts as functional, cell-based. This is another data set of the same source.
Assay [3] has as its target Mitochondrial peptide methionine sulfoxide reductase (Bos taurus, UniProt P54149). Put plainly: Absorbance-based biochemical high throughput dose response assay for activators of Methionine sulfoxide reductase A (MsrA). It counts as functional.
Assay [4] addresses T1, Calpain-2 catalytic subunit (Sus scrofa, UniProt P43367).
T1 sequence (P43367 whole entry): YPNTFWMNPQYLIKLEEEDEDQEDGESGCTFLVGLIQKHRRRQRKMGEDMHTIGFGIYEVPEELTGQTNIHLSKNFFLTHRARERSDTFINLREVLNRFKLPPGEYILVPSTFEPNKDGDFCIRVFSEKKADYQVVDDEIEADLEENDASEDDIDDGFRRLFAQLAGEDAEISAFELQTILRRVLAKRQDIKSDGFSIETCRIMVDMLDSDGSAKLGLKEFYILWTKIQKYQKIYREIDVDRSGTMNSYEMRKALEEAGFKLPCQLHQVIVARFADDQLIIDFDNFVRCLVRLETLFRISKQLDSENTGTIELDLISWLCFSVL
Put plainly: pig calpain II inhibitor potency, dose response, biochemical, fluorogenic peptide substrate (AID 1420). Type of assay: functional.

Assay [5] concerns the target Induced myeloid leukemia cell differentiation protein Mcl-1 (Homo sapiens, UniProt Q07820). Type of assay: functional.
The nature of assay [6]: Counterscreen for AddAB inhibitors: absorbance-based bacterial cell-based high throughput dose response assay for inhibitors of bacterial viability. [Related pubchem assays (depositor defined):AID435030, AID449728, AID449731, AID488942, AID488955, AID488956]. Type of assay: functional. For orientation: Counterscreens check selectivity or assay interference.
The subject of the next assay is Vero. The assay can be described thus: Vero cell cytotoxicity, cytotoxicity control for flavivirus capping enzyme inhibitors (AID 588742). It counts as functional. The following applies: Chlorocebus sabaeus.
The next assay addresses Genome polyprotein (dengue virus type 2, UniProt P29990). The assay can be described thus: Dengue-2 NS5 methyltransferase inhibitors, primary screen, biochemical, confirmation dose response (AID 588689). Type of assay: functional.
For assay [7], the target named is Dual specificity protein kinase CLK2 (Homo sapiens, UniProt P49760). It counts as functional.
Assay [8] has as its target Proto-oncogene tyrosine-protein kinase receptor Ret (Homo sapiens, UniProt P07949). It counts as functional.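 Also: measured within a kinome-wide profiling panel, RET as the panel member.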
Assay [9] deals with Testis-specific serine/threonine-protein kinase 2 (Homo sapiens, UniProt Q96PF2). Type of assay: functional.
For assay [10], the target named is Serine/threonine-protein kinase Chk2 (Homo sapiens, UniProt O96017). Type of assay: functional.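 Also: CHEK2 entry within a kinome-wide screening panel.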
Assay [11] concerns the target Rho-associated protein kinase 2 (Homo sapiens, UniProt O75116). It counts as functional.
The target in assay [12] is MAP kinase-activated protein kinase 2 (Homo sapiens, UniProt P49137). Type of assay: functional.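 Also: measured as one member of a kinome-wide kinase panel.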
Assay [13] addresses Casein kinase II subunit alpha (Homo sapiens, UniProt P68400). It counts as functional.
Assay [14] has as its target Casein kinase I isoform gamma-1 (Homo sapiens, UniProt Q9HCP0). It counts as functional.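 Also: measured as the CSNK1G1 member of a kinome profiling panel.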
The target of assay [15] is Tyrosine-protein kinase Lyn (Homo sapiens, UniProt P07948). It counts as functional.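 Also: lyn as one member of a kinase panel.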
Assay [16] addresses Mitogen-activated protein kinase 9 (Homo sapiens, UniProt P45984). It counts as functional.
For assay [17], the target named is Calcium/calmodulin-dependent protein kinase kinase 2 (Homo sapiens, UniProt Q96RR4). The assay can be described thus: Navigating the Kinome. Panel member name: CAMKK2. It counts as functional.
A further assay has as its target Insulin receptor (Homo sapiens, UniProt P06213). Type of assay: functional.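 Also: insulin receptor kinase tested as one member of a kinome-wide kinase panel.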
Assay [18] deals with Mitogen-activated protein kinase kinase kinase 20 (Homo sapiens, UniProt Q9NYL2). Type of assay: functional.
The target in assay [19] is Glycogen synthase kinase-3 alpha (Homo sapiens, UniProt P49840). Type of assay: functional.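 Also: GSK3A result taken from a broad kinome-wide kinase panel.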
Assay [20] concerns the target Mitogen-activated protein kinase kinase kinase kinase 2 (Homo sapiens, UniProt Q12851). Type of assay: functional.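 Also: measured as one member of a kinome-wide kinase panel, with MAP4K2 as the panel entry.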
Assay [21] concerns the target Receptor tyrosine-protein kinase erbB-2 (Homo sapiens, UniProt P04626). Put plainly: Navigating the Kinome. Panel member name: ERBB2. Type of assay: functional.
In assay [22] the target is Serine/threonine-protein kinase Chk1 (Homo sapiens, UniProt O14757). It counts as functional.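 Also: measured as one member of a kinome-wide kinase profiling panel.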
The target in assay [23] is G protein-coupled receptor kinase 5 (Homo sapiens, UniProt P34947). Put plainly: Navigating the Kinome. Panel member name: GPRK5. It counts as functional.
Assay [24] has as its target Serine/threonine-protein kinase Nek4 (Homo sapiens, UniProt P51957). It counts as functional.
For assay [25], the target named is Protein kinase C iota type (Homo sapiens, UniProt P41743). Type of assay: functional.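 Also: measured within a kinome-wide kinase panel, PRKCI as panel member.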
In assay [26] the target is Dual specificity tyrosine-phosphorylation-regulated kinase 1B (Homo sapiens, UniProt Q9Y463). The assay can be described thus: Navigating the Kinome. Panel member name: DYRK1B. Type of assay: functional.
Assay [27] deals with Maternal embryonic leucine zipper kinase (Homo sapiens, UniProt Q14680). It counts as functional.
For assay [28], the target named is Leucine-rich repeat serine/threonine-protein kinase 2 (Homo sapiens, UniProt Q5S007). It counts as functional.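 Also: value from a broad kinome-wide panel profiling study in which LRRK2 was one of the kinases tested.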
Assay [29] deals with Interleukin-1 receptor-associated kinase 4 (Homo sapiens, UniProt Q9NWZ3). Type of assay: functional.
Assay [30] addresses cAMP-dependent protein kinase catalytic subunit alpha (Homo sapiens, UniProt P17612). Type of assay: functional.
Assay [31] deals with Inhibitor of nuclear factor kappa-B kinase subunit epsilon (Homo sapiens, UniProt Q14164). Put plainly: Navigating the Kinome. Panel member name: IKBKE. It counts as functional.

The source made the active and inactive calls. A value given as a limit tells only on which side of the number the result lay.

Sequence of Mitochondrial peptide methionine sulfoxide reductase (P54149 whole entry): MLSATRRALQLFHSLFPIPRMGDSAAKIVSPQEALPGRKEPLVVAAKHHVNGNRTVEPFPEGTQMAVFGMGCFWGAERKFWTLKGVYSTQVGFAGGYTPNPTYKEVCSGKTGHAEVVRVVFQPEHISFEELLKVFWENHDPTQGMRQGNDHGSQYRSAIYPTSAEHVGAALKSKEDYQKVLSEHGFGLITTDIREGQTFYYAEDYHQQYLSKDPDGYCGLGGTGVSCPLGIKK
Sequence of G protein-coupled receptor kinase 5 (P34947 whole entry): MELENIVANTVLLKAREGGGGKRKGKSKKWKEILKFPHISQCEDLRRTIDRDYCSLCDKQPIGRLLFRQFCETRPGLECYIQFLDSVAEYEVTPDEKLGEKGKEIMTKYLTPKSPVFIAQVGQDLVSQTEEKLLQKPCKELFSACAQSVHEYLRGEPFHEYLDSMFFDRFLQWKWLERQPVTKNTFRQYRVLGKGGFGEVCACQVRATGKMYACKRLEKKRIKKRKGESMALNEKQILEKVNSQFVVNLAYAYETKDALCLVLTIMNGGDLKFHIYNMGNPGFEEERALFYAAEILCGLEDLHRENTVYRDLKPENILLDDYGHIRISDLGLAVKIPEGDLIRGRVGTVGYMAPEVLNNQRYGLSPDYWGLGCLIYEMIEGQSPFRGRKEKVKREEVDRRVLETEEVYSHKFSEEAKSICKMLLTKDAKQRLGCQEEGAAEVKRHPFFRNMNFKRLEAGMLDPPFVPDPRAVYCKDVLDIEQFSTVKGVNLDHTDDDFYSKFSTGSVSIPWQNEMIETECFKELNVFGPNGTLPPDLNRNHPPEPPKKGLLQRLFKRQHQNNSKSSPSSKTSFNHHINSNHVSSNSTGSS
Sequence of Interleukin-1 receptor-associated kinase 4 (Q9NWZ3 whole entry): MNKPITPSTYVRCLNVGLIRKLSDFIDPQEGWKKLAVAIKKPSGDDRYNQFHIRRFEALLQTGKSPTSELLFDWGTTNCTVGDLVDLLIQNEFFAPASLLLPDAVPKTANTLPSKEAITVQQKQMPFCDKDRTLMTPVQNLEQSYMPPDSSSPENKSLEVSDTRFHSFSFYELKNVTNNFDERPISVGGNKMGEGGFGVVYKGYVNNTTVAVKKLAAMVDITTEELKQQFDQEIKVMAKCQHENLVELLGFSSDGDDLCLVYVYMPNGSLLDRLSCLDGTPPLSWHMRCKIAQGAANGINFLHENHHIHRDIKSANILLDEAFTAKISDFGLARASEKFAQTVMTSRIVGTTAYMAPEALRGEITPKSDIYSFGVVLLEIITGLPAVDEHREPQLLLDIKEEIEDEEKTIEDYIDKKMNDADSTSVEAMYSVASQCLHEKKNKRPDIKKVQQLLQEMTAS
Sequence of Genome polyprotein (P29990 2492-3391 limits assumed): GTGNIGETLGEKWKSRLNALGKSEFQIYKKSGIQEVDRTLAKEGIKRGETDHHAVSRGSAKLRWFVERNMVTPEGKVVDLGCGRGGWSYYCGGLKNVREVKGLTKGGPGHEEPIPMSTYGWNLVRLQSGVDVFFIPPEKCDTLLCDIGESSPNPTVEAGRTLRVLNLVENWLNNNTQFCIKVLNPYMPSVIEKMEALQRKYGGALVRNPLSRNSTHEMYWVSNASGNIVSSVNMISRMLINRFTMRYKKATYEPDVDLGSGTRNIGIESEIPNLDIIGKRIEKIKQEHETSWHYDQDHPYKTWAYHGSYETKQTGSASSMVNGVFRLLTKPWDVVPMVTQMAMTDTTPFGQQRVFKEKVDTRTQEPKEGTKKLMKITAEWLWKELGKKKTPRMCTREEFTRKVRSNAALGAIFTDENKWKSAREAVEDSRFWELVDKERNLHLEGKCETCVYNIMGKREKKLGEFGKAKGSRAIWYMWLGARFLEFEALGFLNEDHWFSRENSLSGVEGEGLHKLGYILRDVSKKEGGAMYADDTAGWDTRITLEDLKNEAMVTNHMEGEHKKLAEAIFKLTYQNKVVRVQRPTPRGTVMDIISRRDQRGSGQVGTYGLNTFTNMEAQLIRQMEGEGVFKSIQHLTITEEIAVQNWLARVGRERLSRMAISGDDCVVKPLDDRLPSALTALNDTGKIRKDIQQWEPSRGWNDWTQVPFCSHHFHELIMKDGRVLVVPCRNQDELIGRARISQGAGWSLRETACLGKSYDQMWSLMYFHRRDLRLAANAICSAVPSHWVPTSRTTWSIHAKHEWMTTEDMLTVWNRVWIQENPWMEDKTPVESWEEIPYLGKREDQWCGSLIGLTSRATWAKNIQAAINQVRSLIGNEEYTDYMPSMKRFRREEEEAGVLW
Sequence of Protein kinase C iota type (P41743 whole entry): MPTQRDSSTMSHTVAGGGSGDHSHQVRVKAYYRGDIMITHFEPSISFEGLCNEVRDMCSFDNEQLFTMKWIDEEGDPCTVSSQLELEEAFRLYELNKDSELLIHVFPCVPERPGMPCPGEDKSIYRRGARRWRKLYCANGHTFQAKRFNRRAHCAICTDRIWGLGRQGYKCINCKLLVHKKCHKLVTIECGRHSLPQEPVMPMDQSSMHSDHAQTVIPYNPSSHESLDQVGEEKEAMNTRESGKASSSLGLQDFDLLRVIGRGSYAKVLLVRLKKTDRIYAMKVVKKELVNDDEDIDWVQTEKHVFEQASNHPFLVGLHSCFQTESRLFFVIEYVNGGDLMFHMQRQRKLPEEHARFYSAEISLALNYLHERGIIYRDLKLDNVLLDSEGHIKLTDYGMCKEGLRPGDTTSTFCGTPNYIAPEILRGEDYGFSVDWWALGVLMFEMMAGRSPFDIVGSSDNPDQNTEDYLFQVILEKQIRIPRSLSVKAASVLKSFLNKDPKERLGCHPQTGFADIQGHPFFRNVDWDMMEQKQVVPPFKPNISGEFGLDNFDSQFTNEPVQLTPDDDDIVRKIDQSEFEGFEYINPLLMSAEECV
Sequence of Dual specificity protein kinase CLK2 (P49760 whole entry): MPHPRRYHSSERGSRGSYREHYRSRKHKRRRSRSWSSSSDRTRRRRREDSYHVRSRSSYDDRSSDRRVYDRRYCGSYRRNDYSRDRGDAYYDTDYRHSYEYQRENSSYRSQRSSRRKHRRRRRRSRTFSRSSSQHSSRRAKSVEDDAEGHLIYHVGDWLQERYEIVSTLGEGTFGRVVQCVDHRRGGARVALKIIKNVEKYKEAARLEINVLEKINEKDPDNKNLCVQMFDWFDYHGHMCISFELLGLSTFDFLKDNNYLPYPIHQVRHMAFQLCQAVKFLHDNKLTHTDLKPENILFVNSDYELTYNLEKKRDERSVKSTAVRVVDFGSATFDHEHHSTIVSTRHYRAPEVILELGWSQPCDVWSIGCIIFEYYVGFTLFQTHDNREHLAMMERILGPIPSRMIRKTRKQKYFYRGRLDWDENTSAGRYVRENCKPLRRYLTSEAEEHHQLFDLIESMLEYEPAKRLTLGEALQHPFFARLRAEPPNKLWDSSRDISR
Sequence of Receptor tyrosine-protein kinase erbB-2 (P04626 whole entry): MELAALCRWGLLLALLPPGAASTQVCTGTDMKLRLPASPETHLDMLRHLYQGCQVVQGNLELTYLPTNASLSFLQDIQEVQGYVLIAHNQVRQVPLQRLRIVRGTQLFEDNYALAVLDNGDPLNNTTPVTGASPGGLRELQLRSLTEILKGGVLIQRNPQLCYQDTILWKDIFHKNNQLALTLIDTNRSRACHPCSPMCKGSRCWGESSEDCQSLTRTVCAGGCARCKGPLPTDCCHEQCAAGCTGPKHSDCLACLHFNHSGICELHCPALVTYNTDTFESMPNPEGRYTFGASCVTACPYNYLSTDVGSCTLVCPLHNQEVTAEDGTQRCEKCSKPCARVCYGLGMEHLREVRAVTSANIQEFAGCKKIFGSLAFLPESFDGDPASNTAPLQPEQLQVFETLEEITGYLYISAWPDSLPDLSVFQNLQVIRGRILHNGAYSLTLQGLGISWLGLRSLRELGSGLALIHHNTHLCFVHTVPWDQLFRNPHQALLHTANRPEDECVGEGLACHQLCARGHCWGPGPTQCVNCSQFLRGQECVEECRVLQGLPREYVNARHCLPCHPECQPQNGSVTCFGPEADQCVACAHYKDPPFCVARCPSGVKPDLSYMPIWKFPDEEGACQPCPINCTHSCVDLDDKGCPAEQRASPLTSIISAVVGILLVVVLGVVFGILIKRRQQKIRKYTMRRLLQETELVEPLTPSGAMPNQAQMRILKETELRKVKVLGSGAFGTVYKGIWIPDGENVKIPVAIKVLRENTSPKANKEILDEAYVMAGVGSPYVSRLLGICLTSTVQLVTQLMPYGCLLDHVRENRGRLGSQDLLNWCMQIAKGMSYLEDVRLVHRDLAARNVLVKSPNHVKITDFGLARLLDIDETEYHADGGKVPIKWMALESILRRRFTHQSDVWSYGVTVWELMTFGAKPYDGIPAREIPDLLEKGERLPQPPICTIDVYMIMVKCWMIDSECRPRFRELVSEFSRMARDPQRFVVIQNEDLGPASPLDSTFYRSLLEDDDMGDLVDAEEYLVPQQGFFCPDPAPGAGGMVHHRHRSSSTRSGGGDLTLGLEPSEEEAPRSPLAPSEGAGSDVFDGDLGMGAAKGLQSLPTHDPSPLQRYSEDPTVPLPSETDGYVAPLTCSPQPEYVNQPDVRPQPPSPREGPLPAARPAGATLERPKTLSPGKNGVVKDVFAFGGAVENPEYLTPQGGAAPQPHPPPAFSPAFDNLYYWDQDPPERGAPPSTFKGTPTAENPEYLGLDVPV
Sequence of Testis-specific serine/threonine-protein kinase 2 (Q96PF2 whole entry): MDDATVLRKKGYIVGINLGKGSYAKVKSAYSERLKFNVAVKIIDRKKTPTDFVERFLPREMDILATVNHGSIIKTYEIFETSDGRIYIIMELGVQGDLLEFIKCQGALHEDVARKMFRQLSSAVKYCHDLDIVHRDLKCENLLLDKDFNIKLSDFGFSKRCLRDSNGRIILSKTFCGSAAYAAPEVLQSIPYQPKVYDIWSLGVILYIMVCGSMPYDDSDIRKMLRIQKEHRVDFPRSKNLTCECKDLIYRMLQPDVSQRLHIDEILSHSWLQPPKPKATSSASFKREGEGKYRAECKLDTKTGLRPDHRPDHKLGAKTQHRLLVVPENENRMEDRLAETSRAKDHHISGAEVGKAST

Broadly, the EC50 is the midpoint of the concentration-response curve. `CCOC(=O)c1c(NS(=O)(=O)c2ccccc2)n(CCCOC)c2nc3ccccc3nc12`: the EC50 in “cells [1]” and in the assay “cells [2]” was > 350000 nM (not active) throughout.

Regarding `O=C(COC(=O)c1ccc([N+](=O)[O-])s1)NCCc1ccccc1`, the EC50 in assay [3] is 22100 nM (inactive).

As usually defined, the IC50 is the concentration that gives 50% inhibition. One may read the CC50 as the concentration at which the toxic effect on the cells reaches its halfway point. Turning to `COCC/N=c1\scc(-c2cccs2)n1/N=C/c1ccc(O)c(O)c1O`, the IC50 is 38900 nM (not active) in assay [4], 5170 nM (active) in [5], > 119000 nM (inactive) in assay [6] and > 100000 nM (active) at Genome polyprotein. Also, in the assay with Vero, the CC50 is 22800 nM (active).

Usually Ki stands for a measure of affinity in units of concentration, obtained from inhibition or displacement. For the compound `OC1CCC(Nc2cc(Cl)nc(-c3c[nH]c4ncccc34)n2)CC1` (centres undefined), the Ki in assay [7] was 794 nM (active); in [8], > 2510 nM (inactive); in assay [9], > 1000 nM (inactive); in assay [10], 398 nM (active); in assay [11], 12.6 nM (active); in assay [12], 1260 nM (active). The Ki in [13] was 100 nM (active); in assay [14], 3160 nM (active); in assay [15], > 1000 nM (inactive); in assay [16] it was 3160 nM (active); in assay [17], > 2510 nM (inactive); on Insulin receptor, > 3980 nM (inactive). Moreover, the Ki was > 7940 nM (inactive) in [18]; 31.6 nM (active) in [19]; 7.94 nM (active) in assay [20]; 1000 nM (active) in [21]; 1000 nM (active) in [22]; > 3980 nM (inactive) in [23]. Also, the inhibitory constant (Ki) in assay [24] is 794 nM (active); in [25] it was 398 nM (active); in assay [26], 316 nM (active); in assay [27], 200 nM (active); in assay [28] it was 31.6 nM (active); in [29] it was 316 nM (active). Besides, the Ki in assay [30] is 126 nM (active); in assay [31] it was > 3160 nM (inactive).
